Assays:
ggTas2r1 [1] = target: T1, ggTas2r1 (Gallus gallus, UniProt Q2AB83); assay: FLIPR calcium mobilization, Fluo4-AM; type: cell-based; conditions: agonist, HEK 293T with Galpha16gust44
T1 construct: gene TAS2R40; full-length receptor with in-frame N-terminal sst3-tag and C-terminal hsv-tag in pcDNA5/FRT; transient in HEK 293T stably expressing chimeric Galpha16gust44
T1 sequence (Q2AB83 1-311): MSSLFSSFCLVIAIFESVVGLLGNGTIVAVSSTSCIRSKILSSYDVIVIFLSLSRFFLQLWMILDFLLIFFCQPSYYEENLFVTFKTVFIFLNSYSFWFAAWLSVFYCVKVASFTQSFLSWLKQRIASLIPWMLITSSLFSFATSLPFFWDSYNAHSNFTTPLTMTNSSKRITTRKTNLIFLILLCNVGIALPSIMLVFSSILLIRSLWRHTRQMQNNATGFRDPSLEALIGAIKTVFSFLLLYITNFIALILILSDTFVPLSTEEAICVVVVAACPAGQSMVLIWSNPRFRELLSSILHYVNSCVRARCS

ggTas2r1 [2] = target: T1, ggTas2r1; assay: FLIPR calcium mobilization, Fluo4-AM; type: cell-based; conditions: agonist; HEK 293T with Galpha16gust44; 2.5 mM probenecid in dye loading

SMILES | dose-response ΔF/F (ggTas2r1 [1]) | further results
OC(CCCN1CCCCC1)(c1ccccc1)c1ccccc1 [diphenidol] | variable decrease in responses compared to the wild-type ggTas2r1 upon stimulation with diphenidol | 
C=C[C@H]1CN2CC[C@H]1C[C@H]2[C@H](O)c1ccnc2ccc(OC)cc12 [quinine] |  | dose-response ΔF/F (ggTas2r1 [1]; tested as quinine sulfate): subjected to calcium-mobilization assays using different concentrations of quinine sulfate
C=C[C@H]1CN2CC[C@H]1C[C@@H]2[C@@H](O)c1ccnc2ccc(OC)cc12 [quinidine] |  | threshold concentration (ggTas2r1 [2]): ~ 0.3 µM
O=c1ccc2ccccc2o1 [coumarin] | The small compound coumarin is only a weak agonist for ggTas2r1 | 
O=C(N[C@H](CO)[C@H](O)c1ccc([N+](=O)[O-])cc1)C(Cl)Cl [chloramphenicol] | at high chloramphenicol concentration the maximal signal amplitude is comparable to the native receptor | 
CN(C)CCC(c1ccc(Cl)cc1)c1ccccn1 (stereo not drawn) [chlorpheniramine] | The functional data for receptor constructs stimulated with chlorpheniramine ranges from wild-type like receptor | 

From article PMC5557796, “Ligand binding modes from low resolution GPCR models and mutagenesis: chicken bitter taste receptor as a test-case” (Scientific Reports, 2017)
